Four molecules from US20240398836A1, “EPOXY STEROIDS” (priority 2021, published 2024) can be followed below.

As a reminder, the AC50 is the concentration giving half of the maximal activity seen. Usually EC50 stands for the concentration needed to bring the measured effect to its halfway point.

In series [1] the test system is pancreatic carcinoma cells (DAN-G). As to the kind of experiment: Apoptosis in pancreatic carcinoma cells. It counts as cell-based. The settings on record: comparable experiments. As to the method: In contrast to conventional glucocorticoids, the steroid WIL 071 can induce apoptosis also in pancreatic carcinoma cells.
The DNA fragmentation was measured by flow cytometry, see FIG. 11. The experiments were performed in triplicate. The error bars show the standard deviations of the measured values of three independent experiments.
The standard treatment for pancreatic carcinoma includes 5-fluorouracil.

In series [2] the test system is Nalm-6 cells. As to the kind of experiment: Half-maximal apoptosis induction (AC50) in Nalm-6 cells. It counts as cell-based. The settings on record: Homo sapiens; Nalm-6, 72 h, flow cytometry; read-out: Biological effect: half-maximal apoptosis induction (AC50). As to the method:
Apoptosis Induction in Nalm-6 Cells after Treatment with WIL-071 or Different Steroid Derivatives.
(§1) The cells were incubated in 6-well plates with 1.0·10^5 cells/mL in two milliliters of medium with the respective steroid derivative in different concentrations. The included solvent control (DMSO) served as a control, which was subtracted from all the other measured values, in order not to take into account the spontaneous apoptosis of the cells that takes place independently of the concentration of active ingredient. After 72 h, a modified cell cycle analysis was performed, in order to quantify the proportion of apoptotic cells by flow cytometry. For each concentration of the steroid, the respective mean values f standard deviations, n=3 (*: p<0.05 vs. DMSO, t test) were determined. Using the curve of the dose-effect relationship (steroid concentration−apoptosis induction) formed from these measured values, the steroid concentration at which apoptosis was triggered in 50% of the tested leukemia cells was read.

Series [3] relates to prednisolone-resistant leukemia cells. As to the kind of experiment: Overcoming of prednisolone resistance. In kind it is cell-based. The conditions noted are these: 72 h. As to the method: as §1
Prednisolone resistance is said to be overcome if the induction of apoptosis in prednisolone-resistant leukemia cells is as high as it is in normal leukemia cells.

The nature of series [4]: Tolerability (dose escalation, MTD) in an animal model. In kind it is in vivo, NOG-F (Taconic) mice. As to the method:
An incremental increase of dose of the three substances Wil-071, Wil-232 and Wil-369 was performed in 8-week-old female NOG-F (Taconic) mice. Different mice were administered one of up to seven different doses of the test substances. The start was on day 1 with the lowest dose of 10 mg/kg. […] All in all, if possible, the doses 10, 20, 40, 80, 100, 150 and 200 mg/kg are tested. Subsequently, the maximum tolerable dose (MTD) was administered to three more animals, and these were subsequently observed for one week, in order to be able to observe any developing symptoms. For this purpose, the animals were observed and weighed on a daily basis. The body weight is considered an indicator of the general condition of the animals.
(§2) For the MTD experiment, Wil-071 was dissolved in 100% DMSO, and then diluted 1:50 with a 20% (w/v) 2-hydroxypropyl-beta-cyclodextrin (HPβCD) solution. Thus, 200 μL of injection solution (per mouse) of a 40 mg/kg dose could be achieved. For 80, 100 and 150 mg/kg, the DMSO proportion was increased to up to 4% (v/v) in the final injection solution. In addition, ultrasound had to be employed, and the sample had to be heated at 60° C. for up to 45 min. 200 mg/kg was reached only as a milky suspension. […] Therefore, Wil-071 can be considered non-toxic up to 150 mg/kg. The final MTD could not be determined because of the insufficient solubility.
For 100 mg/kg of Wil-232, the end concentration of DMSO in the injection solution was 2%. In order to dissolve Wil-232, the sample also had to be treated with ultrasound, and heated at 60° C. The dose of 150 mg/kg was achieved only with 4% DMSO, and 200 mg/kg was achieved only as a suspension. […] Otherwise, there were no signs of toxicity, so that the substance can be considered tolerable up to 150 mg/kg. In this case too, a final MTD cannot be determined because of insufficient solubility.
Using a DMSO stock and 20% HPβCD solution, a maximum of only 5 mg/ml was dissolved. A further increase could not be achieved even with more DMSO or HPβCD. Thus, above the dose of 40 mg/kg, a higher injection volume was injected in order to reach the corresponding dose. […] For the tolerability under the current solubility conditions, a value of […] is to be applied. This dose was injected into the 8 animals for pharmacokinetics. In this case too, a final MTD cannot be determined because of insufficient solubility.

Series [5] is classed as physicochemical. As to the method: All three substances are sparingly soluble in tested injection solutions, so that the maximal dose could not exceed 200 mg/kg.
as §2
For 100 mg/kg of Wil-232, the end concentration of DMSO in the injection solution was 2%. In order to dissolve Wil-232, the sample also had to be treated with ultrasound, and heated at 60° C. The dose of 150 mg/kg was achieved only with 4% DMSO, and 200 mg/kg was achieved only as a suspension. […] In this case too, a final MTD cannot be determined because of insufficient solubility.
Using a DMSO stock and 20% HPβCD solution, a maximum of only 5 mg/ml was dissolved. […] In this case too, a final MTD cannot be determined because of insufficient solubility.

The nature of series [6]: Distribution in serum, brain and liver after injection. It counts as in vivo, NOG-F (Taconic) mice. How it is done: Following the determination of the MTD, eight animals were again injected the MTD of the substances, and after 1, 2, 8 and 24 hours, 2 animals each were killed. For pharmacokinetics, the liver, brain and serum of the animals were shock-frosted in liquid nitrogen, and analyzed (see Example 15).
The samples obtained in Example 4 were examined for the contents of the substances. Since WIL-369 can be hydrolyzed to WIL-071, both WIL-369 and WIL-071 were determined in the samples. As far as these substances were detectable in the samples, this is represented in the Figures.

In the case of `O=C1[O][Pt]2([NH][C@@H]3CCCC[C@H]3[NH]2)[O]C1=O` [Oxaliplatin], in series [1] (at 50 μM), the apoptosis came to 14%.
On to `COC(=O)/C=C/C(=O)O[C@H]1CC[C@@]23CO[C@@H](C(=O)[C@@]2(O)C1)[C@H]1[C@@H]2CC[C@H]([C@H](C)CCCC(C)C)[C@@]2(C)CC[C@@H]13` [WIL369, (7β,19-epoxy-5α-hydroxy-6-on-cholestan-3β-yl)methyl ester of fumaric acid], for which the AC50 in series [2] is around 3 µM. Besides, the EC50 in series [3] was determined as 5 µM. For the same molecule, the mortality result in series [4] (100 mg/kg dose group, one animal) was “found dead on day 3 after the injection”. Moreover, the behaviour after injection entry in series [4] (100 mg/kg in twice as large injection volumes) is recorded as “the animals lay down on their side for some moments, but recovered quickly”. In addition, the “tolerability under the current solubility conditions” value in series [4] (mice, injection) is recorded as 50 mg/kg. Also, in series [5], the maximum dissolved concentration was at most 5 mg/mL and the solubility result is recorded as “lowest solubility”. In addition, in series [6], the “distribution in the liver” value is reported as “a quick degradation takes place in the liver; it is the only place where WIL-369 is found”.
With `O=c1[nH]cc(F)c(=O)[nH]1` [5-fluorouracil], the apoptosis in series [1] (at 30 μM) was 24.9%; in series [1] (at 50 μM), 21.2%.
With `CC(=O)O[C@H]1CC[C@@]23CO[C@@H](C(=O)[C@@]2(O)C1)[C@H]1[C@@H]2CC[C@H]([C@H](C)CCCC(C)C)[C@@]2(C)CC[C@@H]13` [WIL-232, 3β-acetoxy-5α-hydroxy-7β,19-epoxy-cholestan-6-one], the AC50 in series [2] was found to be 25 µM. For the same molecule, a half-maximal response in series [3] (EC50) required 17.5 µM. In addition, in series [4] (200 mg/kg as suspension, signs of pulmonary embolism in section), the “outcome of injection of the 200 mg/kg suspension” value is “immediate death of the animal”. Besides, the “dose up to which non-toxic / tolerable” value in series [4] (injection into caudal vein, mice, final MTD not determinable because of solubility) is “up to 150 mg/kg”.
